Marks after values point to notes of the source that are not given here.
Tests used:
[1] = Absorption maximum of the dye; format: physicochemical
Source text: (§1) Examples of the compounds according to the invention are listed in Tables 2-6, where the structures as well as the absorption and fluorescence maxima are indicated. The spectra of selected compounds are shown FIGS. 5-18.

[2] = Fluorescence maximum of the dye; format: physicochemical
Source text: as §1

SMILES | λabs ([1]; solvent PBS pH 7.4) | λfl ([2]; solvent PBS pH 7.4) | λabs ([1]; solvent ethanol) | λfl ([2]; solvent ethanol) | λabs ([1]; solvent water/acetonitrile 1:1)
CN(Cc1ccc(S(=O)(=O)O)cc1S(=O)(=O)O)c1ccc2c(c1)[Si](C)(C)C1=C/C(=[N+](/C)Cc3ccc(S(=O)(=O)O)cc3S(=O)(=O)O)C=CC1=C2c1c(F)c(F)c(SCC(=O)O)c(F)c1F [Compound 54] | 685^b nm | 709^b nm | – | – | –
CN(C)c1ccc2c(c1)C(C)(C)c1cc3c(cc1=C2)CCC[N+]=3CS(=O)(=O)O [Compound 75] | – | – | 597^a nm | 621^a nm | –
CC1(C)CC(CS(=O)(=O)O)c2cc3c(cc2=[N+]1CCCC(=O)O)Oc1cc2c(cc1N=3)CCCN2Cc1ccc(S(=O)(=O)O)cc1S(=O)(=O)O (stereo not drawn) [Compound 98] | 664^b nm | 682^b nm | – | – | –
CCN1c2cc3c(cc2C(CS(=O)(=O)O)=CC1(C)C)C(c1ccccc1C(=O)N(C)CCCC(=O)O)=c1cc2c(cc1C3(C)C)=[N+](Cc1ccc(S(=O)(=O)O)cc1S(=O)(=O)O)C(C)(C)C=C2CS(=O)(=O)O [Compound 65] | 679^b nm | 706^b nm | – | – | –
Cc1cc(=O)n(CC(=O)O)c2cc(NCc3ccc(S(=O)(=O)O)cc3S(=O)(=O)O)ccc12 [Compound 107] | 351^b nm | 413^b nm | – | – | –
O=C(O)c1ccccc1-c1c2cc/c(=N/CS(=O)(=O)O)c(S(=O)(=O)O)c-2oc2c(S(=O)(=O)O)c(NCS(=O)(=O)O)ccc12 [Compound 1] | – | 554^b nm | – | – | 533^c nm
O=C(O)c1ccccc1-c1c2cc/c(=N/Cc3ccc(S(=O)(=O)O)cc3S(=O)(=O)O)cc-2oc2cc(NCc3ccc(S(=O)(=O)O)cc3S(=O)(=O)O)ccc12 [Compound 4] | – | 559^b nm | – | – | 536^c nm
CN(Cc1ccc(S(=O)(=O)O)cc1S(=O)(=O)O)c1ccc2c(c1)[Si](C)(C)C1=C/C(=[N+](/C)Cc3ccc(S(=O)(=O)O)cc3S(=O)(=O)O)C=CC1=C2c1cc(C(=O)O)ccc1C(=O)O [Compound 70] | 649^b nm | 670^b nm | – | – | –
CC[N+]1=c2cc3c(cc2C(CS(=O)(=O)O)=CC1(C)C)=C(c1c(F)c(F)c(SCCS(=O)(=O)O)c(F)c1F)c1cc2c(cc1C3(C)C)N(Cc1ccc(S(=O)(=O)O)cc1S(=O)(=O)O)CCC2 [Compound 42] | 682^b nm | 701^b nm | – | – | –
CC1(C)c2cc3c(cc2C(c2c(F)c(F)c(SCC(=O)O)c(F)c2F)=c2cc4c(cc21)=[N+](Cc1ccc(S(=O)(=O)O)cc1S(=O)(=O)O)C(C)(C)CC4CS(=O)(=O)O)C(CS(=O)(=O)O)=CC(C)(C)N3Cc1ccc(S(=O)(=O)O)cc1S(=O)(=O)O (stereo not drawn) [Compound 40] | 699^b nm | 720^b nm | – | – | –
CCN(Cc1ccc(S(=O)(=O)O)cc1S(=O)(=O)O)c1ccc2c(-c3ccccc3C(=O)N(C)CCCC(=O)O)c3cc/c(=[N+](\CC)Cc4ccc(S(=O)(=O)O)cc4S(=O)(=O)O)cc-3oc2c1 [Compound 5] | – | 584^b nm | – | – | 560^c nm
CC1(C)c2cc3c(cc2C(c2c(F)c(F)c(SCCS(=O)(=O)O)c(F)c2F)=c2cc4c(cc21)=[N+](CCc1ccc(S(=O)(=O)O)cc1)C(C)(C)C=C4CS(=O)(=O)O)C(CS(=O)(=O)O)=CC(C)(C)N3CCCC(=O)O [Compound 45] | 698^b nm | 719^b nm | – | – | –
CN(Cc1ccc(S(=O)(=O)O)cc1S(=O)(=O)O)c1ccc2c(c1)[Si](C)(C)C1=C/C(=[N+](/C)Cc3ccc(S(=O)(=O)O)cc3S(=O)(=O)O)C=CC1=C2NCCCC(=O)O [Compound 90] | 483^b nm | 637^b nm | – | – | –
CN(Cc1ccc(S(=O)(=O)O)cc1S(=O)(=O)O)c1ccc2c(c1)[Si](C)(C)C1=C/C(=[N+](/C)Cc3ccc(S(=O)(=O)O)cc3S(=O)(=O)O)C=CC1=C2C#N [Compound 89] | 746^b nm | 763^b nm | – | – | –
Cn1cc[n+](CCCCS(=O)(=O)O)c1C1=c2cc3c(cc2C(C)(C)c2cc4c(cc21)C(CS(=O)(=O)O)=CC(C)(C)N4Cc1ccc(S(=O)(=O)O)cc1S(=O)(=O)O)=[N+](CCCC(=O)O)C(C)(C)C=C3CS(=O)(=O)O [Compound 60] | 742^b nm | 775^b nm | – | – | –
CN(CCCC(=O)O)C(=O)c1ccccc1C1=c2cc3c(cc2[Si](C)(C)c2cc4c(cc21)C(CS(=O)(=O)O)=CC(C)(C)N4Cc1ccc(S(=O)(=O)O)cc1S(=O)(=O)O)=[N+](Cc1ccc(S(=O)(=O)O)cc1S(=O)(=O)O)C(C)(C)C=C3CS(=O)(=O)O [Compound 71] | 722^b nm | 752^b nm | – | – | –
CC1=CC(C)(C)N(Cc2ccc(S(=O)(=O)O)cc2)c2cc3c(cc21)C(c1n(C)cc[n+]1CCCCS(=O)(=O)O)=c1cc2c(cc1C3(C)C)=[N+](CCCC(=O)O)C(C)(C)C=C2C [Compound 58] | 742^b nm | 775^b nm | – | – | –
CC1(C)C=C(CS(=O)(=O)O)c2cc3c(cc2=[N+]1CCCC(=O)O)Oc1cc2c(cc1N=3)CCCN2Cc1ccc(S(=O)(=O)O)cc1S(=O)(=O)O [Compound 99] | 682^b nm | 700^b nm | – | – | –

SMILES | λabs ([1]; solvent PBS pH 7.4) | λfl ([2]; solvent PBS pH 7.4) | λabs ([1]; solvent ethanol) | λfl ([2]; solvent ethanol) | λabs ([1]; solvent water/acetonitrile 1:1)
CC1(C)C=C(CS(=O)(=O)O)c2cc3c(cc2N1)C(C)(C)c1cc2c(cc1=C3c1c(F)c(F)c(SCC(=O)O)c(F)c1F)C(CS(=O)(=O)O)=CC(C)(C)[N+]=2Cc1ccc(S(=O)(=O)O)cc1 [Compound 44] | 687^b nm | 707^b nm | – | – | –
CC1(C)C=C(CS(=O)(=O)O)c2cc3c(cc2N1CCCC(=O)O)[Si](C)(C)c1cc2c(cc1=C3)C(CS(=O)(=O)O)=CC(C)(C)[N+]=2CS(=O)(=O)O [Compound 91] | 715^b nm | 738^b nm | – | – | –
Cc1c(CC(=O)O)c(=O)oc2cc(Nc3nc(Cl)nc(NCCS(=O)(=O)O)n3)ccc12 [Compound 112] | 338^b nm | 416^b nm | – | – | –
Cc1cc(=O)n(CC(=O)O)c2cc(NCc3ccc(S(=O)(=O)O)cc3S(=O)(=O)O)c(S(=O)(=O)O)cc12 [Compound 109] | 349^b nm | 418^b nm | – | – | –
CC1(C)c2cc3c(cc2N=c2cc4c(cc21)=[N+](CCCC(=O)O)C(C)(C)CC4CS(=O)(=O)O)CCCN3Cc1ccc(S(=O)(=O)O)cc1S(=O)(=O)O (stereo not drawn) [Compound 102] | 721^b nm | 742^b nm | – | – | –
CC1(C)c2cc3c(cc2C(c2c(Cl)cccc2Cl)=c2cc4c(cc21)=[N+](Cc1ccc(S(=O)(=O)O)cc1S(=O)(=O)O)C(C)(C)CC4CS(=O)(=O)O)CCCN3CCCC(=O)O (stereo not drawn) [Compound 53] | 654^b nm | 677^b nm | – | – | –
Cn1cc[n+](CCCC(=O)O)c1C1=c2cc3c(cc2[Si](C)(C)c2cc4c(cc21)C(CS(=O)(=O)O)=CC(C)(C)N4Cc1ccc(S(=O)(=O)O)cc1S(=O)(=O)O)=[N+](Cc1ccc(S(=O)(=O)O)cc1S(=O)(=O)O)C(C)(C)C=C3CS(=O)(=O)O [Compound 62] | 791^b nm | 817^b nm | – | – | –
CN(C)c1ccc2c(c1)C(C)(C)C1=C/C(=[N+](/C)Cc3ccc(S(=O)(=O)O)cc3S(=O)(=O)O)C=CC1=C2c1c(F)c(F)c(F)c(F)c1F [Compound 37] | 642^b nm | 661^b nm | – | – | –
Cc1cc(=O)n(CC(=O)O)c2cc(NCS(=O)(=O)O)ccc12 [Compound 106] | 350^b nm | 410^b nm | – | – | –
O=C(O)c1ccccc1-c1c2cc/c(=N/CCc3ccc(S(=O)(=O)O)cc3)cc-2oc2cc(NCCc3ccc(S(=O)(=O)O)cc3)ccc12 [Compound 18] | – | 551^b nm | – | – | 530^c nm
CC[N+]1=c2cc3c(cc2C(CS(=O)(=O)O)=CC1(C)C)=C(c1c(F)c(F)c(SCC(=O)O)c(F)c1F)c1cc2c(cc1C3(C)C)N(Cc1ccc(S(=O)(=O)O)cc1S(=O)(=O)O)CCC2 [Compound 43] | 684^b nm | 704^b nm | – | – | –
CC[N+]1=c2cc3c(cc2C(CS(=O)(=O)O)=CC1(C)C)=C(c1n(C)cc[n+]1CCCCC(=O)O)c1cc2c(cc1C3(C)C)N(Cc1ccc(S(=O)(=O)O)cc1S(=O)(=O)O)C(C)(C)C=C2CS(=O)(=O)O [Compound 61] | 743^b nm | 776^b nm | – | – | –
CCN(Cc1ccccc1S(=O)(=O)O)c1ccc2c(-c3ccccc3C(=O)O)c3cc/c(=[N+](\CC)Cc4ccccc4S(=O)(=O)O)cc-3oc2c1 [Compound 2] | – | 584^b nm | – | – | 554^c nm
CN(CCCC(=O)O)C(=O)c1ccccc1C1=c2cc3c(cc2C(C)(C)c2c1cc1c4c2CCCN4CCC1)=[N+](Cc1ccc(S(=O)(=O)O)cc1S(=O)(=O)O)CCC3 [Compound 41] | 640 nm | 659 nm | 642 nm | 663 nm | –
C[Si]1(C)c2cc3c(cc2C=c2cc4c(cc21)=[N+](Cc1ccc(S(=O)(=O)O)cc1S(=O)(=O)O)CCC4)CCCN3CCCC(=O)O [Compound 94] | 670^b nm | 693^b nm | – | – | –
CC1(C)C=C(CS(=O)(=O)O)c2cc3c(cc2N1CCS(=O)(=O)O)[Si](C)(C)c1cc2c(cc1=C3NC(CCS(=O)(=O)O)C(=O)O)C(CS(=O)(=O)O)=CC(C)(C)[N+]=2CCS(=O)(=O)O (stereo not drawn) [Compound 96] | 518^b nm | 695^b nm | – | – | –
CN(C)c1ccc2c(c1)C(C)(C)c1cc3c(cc1=C2C#N)CCC[N+]=3Cc1ccc(S(=O)(=O)O)cc1S(=O)(=O)O [Compound 77] | 730^b nm | 751^b nm | – | – | –
